Measurements: US10550111B2, “Pyrimidine urea compound containing isoxazolines and use thereof” (SHENYANG SINOCHEM AGROCHEMICALS R&D CO., LTD, priority 2014, dated 2020)

Assays:
Assay type in all cases: in vivo
[1] = tested on: broad-leaf weeds and grass weeds; experiment: General screening of herbicidal activity in greenhouse; settings: 1000 g a.i./hm^2;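 note: 0 means no visible effect and 100 means all weeds dead or not emerged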
Outline: (§1)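 Weeds grown from seed in soil pots in greenhouse; emulsifiable-concentrate compounds applied by track sprayer pre-emergence (24 h after sowing) or post-emergence (grass 2–3-leaf, broad-leaf 2–4-leaf stage). Growth inhibition (%) scored visually, 0 = no action, 100 = all dead or not emerged.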

[2] = tested on: Setaria glauca (L.) Beauv.; experiment: Bioassay of herbicidal activity in greenhouse (further screening)
Outline: as §1

[3] = tested on: Abutilon theophrasti Medic.; experiment: as above
Outline: as §1

[4] = tested on: Echinochloa crus-galli (L.) Beauv.; experiment: as above
Outline: as §1

[5] = tested on: Zinnia elegans Jacq.; experiment: as above
Outline: as §1

[6] = tested on: maize; experiment: Crop safety study in greenhouse; settings: 7.5-37.5 g a.i./hm^2; pre-emergence and post-emergence application
From the text: (§2) Seeds of soybean, cotton, maize, wheat and rice were sown in nutrition soil in paper pot (9 cm diameter), covered with soil in 1 cm and grown in the greenhouse under good growth conditions (temperature, atmospheric humidity, water supply). The compounds of the present invention as emulsifiable concentrate, were applied in pre-emergence and post-emergence treatment by track sprayer (Engineer Research Ltd., pressure 1.95 kg/cm^2, volume 500 L/hm^2, track speed 1.48 km/h). Pre-emergence treatment was conducted after seeding 24 hours and post-emergence treatment was done when the respective weeds reached predetermined leaf stage (soybean and cotton at 2- to 4-leaf stage and maize, wheat and rice at 3-leaf stage), the state of growth of the respective crops were visually observed to determine the safety in accordance with the following evaluation standard.
(§3) Safety rating scale (%): 0 means no damage to crops; 100 means to kill crops completely.

[7] = tested on: rice; experiment: Crop safety study in greenhouse; settings: 7.5-37.5 g a.i./hm^2; pre-emergence and post-emergence application
From the text: as §2, §3

[8] = tested on: wheat; experiment: Crop safety study in greenhouse; settings: 7.5-37.5 g a.i./hm^2; pre-emergence and post-emergence application
From the text: as §2, §3

SMILES: CC(C)C(=O)OCC1(C)CC(c2cc(-n3c(=O)cc(C(F)(F)F)n(C)c3=O)c(F)cc2Cl)=NO1 (stereo not shown) [Compound 46]
- pre-emergence and post-emergence herbicidal activity against broad-leaf weeds and grass weeds [1]: good
- Growth inhibition rate, Post-emergence treatment, Setaria glauca (L.) Beauv. ([2]; dose 7.5 g a.i./hm^2): 45%
- Growth inhibition rate, Post-emergence treatment, Setaria glauca (L.) Beauv. ([2]; dose 15 g a.i./hm^2): 55%
- Growth inhibition rate, Post-emergence treatment, Setaria glauca (L.) Beauv. ([2]; dose 37.5 g a.i./hm^2): 55%
- Growth inhibition rate, Post-emergence treatment, Setaria glauca (L.) Beauv. ([2]; dose 150 g a.i./hm^2): 80%
- Growth inhibition rate, Post-emergence treatment, Setaria glauca (L.) Beauv. ([2]; dose 600 g a.i./hm^2): 100%
- Growth inhibition rate, Pre-emergence treatment, Setaria glauca (L.) Beauv. ([2]; dose 7.5 g a.i./hm^2): 75%
- Growth inhibition rate, Pre-emergence treatment, Setaria glauca (L.) Beauv. ([2]; dose 15 g a.i./hm^2): 60%
- Growth inhibition rate, Pre-emergence treatment, Setaria glauca (L.) Beauv. ([2]; dose 37.5 g a.i./hm^2): 95%
- Growth inhibition rate, Pre-emergence treatment, Setaria glauca (L.) Beauv. ([2]; dose 150 g a.i./hm^2): 100%
- Growth inhibition rate, Pre-emergence treatment, Setaria glauca (L.) Beauv. ([2]; dose 600 g a.i./hm^2): 100%
- Growth inhibition rate, Post-emergence treatment, Abutilon theophrasti Medic. ([3]; dose 7.5 g a.i./hm^2): 98%
- Growth inhibition rate, Post-emergence treatment, Abutilon theophrasti Medic. ([3]; dose 15 g a.i./hm^2): 100%
- Growth inhibition rate, Post-emergence treatment, Abutilon theophrasti Medic. ([3]; dose 37.5 g a.i./hm^2): 100%
- Growth inhibition rate, Post-emergence treatment, Abutilon theophrasti Medic. ([3]; dose 150 g a.i./hm^2): 100%
- Growth inhibition rate, Post-emergence treatment, Abutilon theophrasti Medic. ([3]; dose 600 g a.i./hm^2): 100%
- Growth inhibition rate, Pre-emergence treatment, Abutilon theophrasti Medic. ([3]; dose 7.5 g a.i./hm^2): 50%
- Growth inhibition rate, Pre-emergence treatment, Abutilon theophrasti Medic. ([3]; dose 15 g a.i./hm^2): 100%
- Growth inhibition rate, Pre-emergence treatment, Abutilon theophrasti Medic. ([3]; dose 37.5 g a.i./hm^2): 100%
- Growth inhibition rate, Pre-emergence treatment, Abutilon theophrasti Medic. ([3]; dose 150 g a.i./hm^2): 100%
- Growth inhibition rate, Pre-emergence treatment, Abutilon theophrasti Medic. ([3]; dose 600 g a.i./hm^2): 100%
- Growth inhibition rate, Post-emergence treatment, Echinochloa crus-galli (L.) Beauv. ([4]; dose 7.5 g a.i./hm^2): 20%
- Growth inhibition rate, Post-emergence treatment, Echinochloa crus-galli (L.) Beauv. ([4]; dose 15 g a.i./hm^2): 25%
- Growth inhibition rate, Post-emergence treatment, Echinochloa crus-galli (L.) Beauv. ([4]; dose 37.5 g a.i./hm^2): 30%
- Growth inhibition rate, Post-emergence treatment, Echinochloa crus-galli (L.) Beauv. ([4]; dose 150 g a.i./hm^2): 75%
- Growth inhibition rate, Post-emergence treatment, Echinochloa crus-galli (L.) Beauv. ([4]; dose 600 g a.i./hm^2): 98%
- Growth inhibition rate, Pre-emergence treatment, Echinochloa crus-galli (L.) Beauv. ([4]; dose 7.5 g a.i./hm^2): 10%
- Growth inhibition rate, Pre-emergence treatment, Echinochloa crus-galli (L.) Beauv. ([4]; dose 15 g a.i./hm^2): 15%
- Growth inhibition rate, Pre-emergence treatment, Echinochloa crus-galli (L.) Beauv. ([4]; dose 37.5 g a.i./hm^2): 50%
- Growth inhibition rate, Pre-emergence treatment, Echinochloa crus-galli (L.) Beauv. ([4]; dose 150 g a.i./hm^2): 95%
- Growth inhibition rate, Pre-emergence treatment, Echinochloa crus-galli (L.) Beauv. ([4]; dose 600 g a.i./hm^2): 100%
- Growth inhibition rate, Post-emergence treatment, Zinnia elegans Jacq. ([5]; dose 7.5 g a.i./hm^2): 98%
- Growth inhibition rate, Post-emergence treatment, Zinnia elegans Jacq. ([5]; dose 15 g a.i./hm^2): 98%
- Growth inhibition rate, Post-emergence treatment, Zinnia elegans Jacq. ([5]; dose 37.5 g a.i./hm^2): 100%
- Growth inhibition rate, Post-emergence treatment, Zinnia elegans Jacq. ([5]; dose 150 g a.i./hm^2): 100%
- Growth inhibition rate, Post-emergence treatment, Zinnia elegans Jacq. ([5]; dose 600 g a.i./hm^2): 100%
- Growth inhibition rate, Pre-emergence treatment, Zinnia elegans Jacq. ([5]; dose 7.5 g a.i./hm^2): 40%
- Growth inhibition rate, Pre-emergence treatment, Zinnia elegans Jacq. ([5]; dose 15 g a.i./hm^2): 45%
- Growth inhibition rate, Pre-emergence treatment, Zinnia elegans Jacq. ([5]; dose 37.5 g a.i./hm^2): 95%
- Growth inhibition rate, Pre-emergence treatment, Zinnia elegans Jacq. ([5]; dose 150 g a.i./hm^2): 100%
- Growth inhibition rate, Pre-emergence treatment, Zinnia elegans Jacq. ([5]; dose 600 g a.i./hm^2): 100%
- Crop safety, maize [6]: good safety
- Crop safety, rice [7]: good safety
- Crop safety, wheat [8]: good safety

SMILES: CC(=O)OCC1(C)CC(c2cc(-n3c(=O)cc(C(F)(F)F)n(C)c3=O)c(F)cc2Cl)=NO1 (stereo not shown) [Compound 43]
- pre-emergence and post-emergence herbicidal activity against broad-leaf weeds and grass weeds [1]: good
- Growth inhibition rate, Post-emergence treatment, Setaria glauca (L.) Beauv. ([2]; dose 7.5 g a.i./hm^2): 70%
- Growth inhibition rate, Post-emergence treatment, Setaria glauca (L.) Beauv. ([2]; dose 15 g a.i./hm^2): 80%
- Growth inhibition rate, Post-emergence treatment, Setaria glauca (L.) Beauv. ([2]; dose 37.5 g a.i./hm^2): 25%
- Growth inhibition rate, Post-emergence treatment, Setaria glauca (L.) Beauv. ([2]; dose 150 g a.i./hm^2): 95%
- Growth inhibition rate, Post-emergence treatment, Setaria glauca (L.) Beauv. ([2]; dose 600 g a.i./hm^2): 100%
- Growth inhibition rate, Pre-emergence treatment, Setaria glauca (L.) Beauv. ([2]; dose 7.5 g a.i./hm^2): 20%
- Growth inhibition rate, Pre-emergence treatment, Setaria glauca (L.) Beauv. ([2]; dose 15 g a.i./hm^2): 35%
- Growth inhibition rate, Pre-emergence treatment, Setaria glauca (L.) Beauv. ([2]; dose 37.5 g a.i./hm^2): 90%
- Growth inhibition rate, Pre-emergence treatment, Setaria glauca (L.) Beauv. ([2]; dose 150 g a.i./hm^2): 98%
- Growth inhibition rate, Pre-emergence treatment, Setaria glauca (L.) Beauv. ([2]; dose 600 g a.i./hm^2): 100%
- Growth inhibition rate, Post-emergence treatment, Abutilon theophrasti Medic. ([3]; dose 7.5 g a.i./hm^2): 100%
- Growth inhibition rate, Post-emergence treatment, Abutilon theophrasti Medic. ([3]; dose 15 g a.i./hm^2): 100%
- Growth inhibition rate, Post-emergence treatment, Abutilon theophrasti Medic. ([3]; dose 37.5 g a.i./hm^2): 100%
- Growth inhibition rate, Post-emergence treatment, Abutilon theophrasti Medic. ([3]; dose 150 g a.i./hm^2): 100%
- Growth inhibition rate, Post-emergence treatment, Abutilon theophrasti Medic. ([3]; dose 600 g a.i./hm^2): 100%
- Growth inhibition rate, Pre-emergence treatment, Abutilon theophrasti Medic. ([3]; dose 7.5 g a.i./hm^2): 100%
- Growth inhibition rate, Pre-emergence treatment, Abutilon theophrasti Medic. ([3]; dose 15 g a.i./hm^2): 100%
- Growth inhibition rate, Pre-emergence treatment, Abutilon theophrasti Medic. ([3]; dose 37.5 g a.i./hm^2): 100%
- Growth inhibition rate, Pre-emergence treatment, Abutilon theophrasti Medic. ([3]; dose 150 g a.i./hm^2): 100%
- Growth inhibition rate, Pre-emergence treatment, Abutilon theophrasti Medic. ([3]; dose 600 g a.i./hm^2): 100%
- Growth inhibition rate, Post-emergence treatment, Echinochloa crus-galli (L.) Beauv. ([4]; dose 7.5 g a.i./hm^2): 10%
- Growth inhibition rate, Post-emergence treatment, Echinochloa crus-galli (L.) Beauv. ([4]; dose 15 g a.i./hm^2): 20%
- Growth inhibition rate, Post-emergence treatment, Echinochloa crus-galli (L.) Beauv. ([4]; dose 37.5 g a.i./hm^2): 10%
- Growth inhibition rate, Post-emergence treatment, Echinochloa crus-galli (L.) Beauv. ([4]; dose 150 g a.i./hm^2): 90%
- Growth inhibition rate, Post-emergence treatment, Echinochloa crus-galli (L.) Beauv. ([4]; dose 600 g a.i./hm^2): 100%
- Growth inhibition rate, Pre-emergence treatment, Echinochloa crus-galli (L.) Beauv. ([4]; dose 7.5 g a.i./hm^2): 10%
- Growth inhibition rate, Pre-emergence treatment, Echinochloa crus-galli (L.) Beauv. ([4]; dose 15 g a.i./hm^2): 60%
- Growth inhibition rate, Pre-emergence treatment, Echinochloa crus-galli (L.) Beauv. ([4]; dose 37.5 g a.i./hm^2): 90%
- Growth inhibition rate, Pre-emergence treatment, Echinochloa crus-galli (L.) Beauv. ([4]; dose 150 g a.i./hm^2): 95%
- Growth inhibition rate, Pre-emergence treatment, Echinochloa crus-galli (L.) Beauv. ([4]; dose 600 g a.i./hm^2): 100%
- Growth inhibition rate, Post-emergence treatment, Zinnia elegans Jacq. ([5]; dose 7.5 g a.i./hm^2): 98%
- Growth inhibition rate, Post-emergence treatment, Zinnia elegans Jacq. ([5]; dose 15 g a.i./hm^2): 100%
- Growth inhibition rate, Post-emergence treatment, Zinnia elegans Jacq. ([5]; dose 37.5 g a.i./hm^2): 100%
- Growth inhibition rate, Post-emergence treatment, Zinnia elegans Jacq. ([5]; dose 150 g a.i./hm^2): 100%
- Growth inhibition rate, Post-emergence treatment, Zinnia elegans Jacq. ([5]; dose 600 g a.i./hm^2): 100%
- Growth inhibition rate, Pre-emergence treatment, Zinnia elegans Jacq. ([5]; dose 7.5 g a.i./hm^2): 0%
- Growth inhibition rate, Pre-emergence treatment, Zinnia elegans Jacq. ([5]; dose 15 g a.i./hm^2): 25%
- Growth inhibition rate, Pre-emergence treatment, Zinnia elegans Jacq. ([5]; dose 37.5 g a.i./hm^2): 50%
- Growth inhibition rate, Pre-emergence treatment, Zinnia elegans Jacq. ([5]; dose 150 g a.i./hm^2): 100%
- Growth inhibition rate, Pre-emergence treatment, Zinnia elegans Jacq. ([5]; dose 600 g a.i./hm^2): 100%
- Crop safety, maize [6]: good safety
- Crop safety, rice [7]: good safety
- Crop safety, wheat [8]: good safety
